Several values for one entry are separate records, joined by “and”; a condition that tells them apart may be missing. Equal entries are not always repeated. Entries after “also recorded” stand apart in the source; their conditions may differ.
What was measured:
PC-3 xenografts = assay: growth inhibition of PC-3 xenografts; type: in vivo, mice; details: 20 mg/kg; for inhibition of growth of PC-3 xenografts: FIG. 4B; for % Max T/C / Log10 Tumor Cell Kill: PC3 (prostate), IV
Experimental: In FIG. 4B, the squares are the control, the dark circles are the data-points for Compound J and the light diamonds are data-points for paclitaxel.
The details of the protocol for Examples 19 and 20 are as follows:
• PC3 prostrate tumor cells and HCT116 colon tumor cells (acquired from the tumor repository Division of Cancer Treatment and Diagnosis (DCTD) of the NCI • Complete RPMI Media • RPMI (Cat# 11875-085, Invitrogen) • 10% Heat-inactivated (30′ 56° C.) Fetal Bovine Serum (Cat# 100-106, Gemini Bio-Products • 2 mM L-glutamine (Cat# 25030-081, Invitrogen) • 0.1 mM MEM Non-Essential Amino Acids Solution (Cat#11140-050, Invitrogen) • 10 U/ml Penicillin/10 μg/ml Streptomycin (Cat#15140-122, Invitrogen) • 1 mM Sodium Pyruvate (Cat#l 1360-070) • Trypsin-EDTA (Cat#25300-054, Invitrogen) • Ca^2+/Mg^2+-free Phosphate Buffered Saline, 5% dextrose in water • Cell Culture Dish 150 mm×25 mm (Cat# 430599, Coming, Inc.) • 10 and 25 ml pipets, standard pipet-aid, p200 and p1000 pipette tips and standard pipetmen • Athymic NCr-nu/nu nude mice at 6-12 weeks of age, either sex (Strain code: 01B74, NCI Frederick Animal Production Program—suppliers include Charles River Labs and Taconic Farms). Female mice of approximately 7 weeks of age were utilized for existing experiments. • Standard 1 cc tuberculin syringe, 30G½ and 25G⅝ needles (Becton Dickinson) • Falcon 5 ml tubes (Cat#352054) • 50 and 15 ml disposable plastic conical tubes (Falcon or similar vendor) • Trypan Blue Solution (0.4%) (Cat#T8154, Sigma) • Hausser phase contrast hemacytometer (Cat# 02-671-54, Fisher) • Ice bucket • Balance for weighing mice (accurate to 0.2 g) • Vernier calipers • Vivarium facility free from known pathogens (nude mice should be housed in isolation from conventional mice if possible—separate rooms or micro-isolator cages equipped with individual air flow; all animal housing, bedding, water should be autoclaved prior to use; standard irradiated mouse chow should be used; animals should be changed out of cages within laminar flow hood; investigators handling mice should be suitably garbed—disposable gown, bonnet, booties, gloves, mask) • AB-5 (Compound J) compound • Ethyl alcohol, 200 proof (Aaper, MFD 041205) • Cremaphor (Cat# C5135, Sigma) • Paclitaxel (Cat#ANP0010, Polymed Therapeutics) Procedure: • 1) Rapidly thaw PC3 or HCT116 cells (if necessary) in 37° C. water bath. Transfer contents to 9ml complete RPMI media. Spin 5′ at 1200 rpm (240 Xg). Discard media and resuspend pellet in 8 ml complete RPMI media. Plate in 100 mm×25 mm cell culture dish in 5% CO2, 37° C. humidified incubator. • 2) Allow to grow for 5-10 days, splitting (aspirate media, wash with 3-5 ml PBS, add 1 ml trypsin-EDTA, incubate 3-5′ at 37° C., add media to desired volume and transfer to multiple plates) 1:8 to 1:10 every 3-4 days as necessary to allow cells to enter phase of logarithmic growth. • 3) When cells are growing well, begin to expand to 150 mm×25 mm dishes. We use 20 ml of media in a 150 mm dish and use 2 ml of trypsin for splitting. When nearly confluent, there should be 2×10^7 cells/150 mm dish. • 4) Plan ahead to time arrival of nu/nu mice such that they can acclimate to animal facility for 1 week prior to injection of tumor cells. […] Plan to inject 10 million cells/mouse and allow for loss of cells/volume during injection process. That is, if 30 mice are to be injected, plan to harvest cells sufficient for at least 35 injections—35×10 million cells=3.5×10^8 cells. In the existing HCT116 experiment, 7.5×10^6 cells were injected per mouse. Five mice per group were utilized for AB-5 treatment and four mice per group were utilized for the control and paclitaxel treatments. In the existing PC3 experiment, 10^7 cells were injected. Six mice per group were utilized for the control treatment and five mice per group were utilized for the AB-5 and paclitaxel treatments. […]

SKMEL-2 = assay: growth inhibition (GI50) of tumor cell lines; type: cell-based; details: SKMEL-2, FIG. 1
Experimental: (§1) A number of tumor cell lines representing breast, lung, colon, ovarian and prostate cancer as well as melanoma were assayed under standard growth conditions in presence of varying amounts of diazonamide A, a hydroxylated form of Compound J, Compound J, paclitaxel and vinblastine. The results are graphed as the concentration that diminishes growth by a factor of two (GI50) in FIG. 1.

[1] = system: ovarian cell line IGR-OV1; assay: growth inhibition (GI50) of tumor cell lines; type: cell-based; details: IGR-OV1, FIG. 1
Experimental: as §1

[2] = system: PTX10 ovarian tumor cell line; assay: survival of PTX10 ovarian tumor cell line; type: cell-based; details: PTX10, FIG. 2
Description: Additional experiments testing the effect of Compound J and paclitaxel on the survival of PTX10ovarian tumor cell line are shown in FIG. 2. […] In FIG. 2, the circles represent Compound J and the diamonds represent paclitaxel.

[3] = pharmacokinetics, intratumoral concentration after intravenous injection; type: in vivo; details: mice with MDA-MB-435 xenograft tumors
Experimental: Compound J was injected intravenously into mice containing xenograft tumors grown from MDA-MB-435 breast cancer cells. The intratumoral concentration of Compound J was measured as a function of time.

[4] = system: MDA-MB-435 (breast) xenografts; assay: growth inhibition of MDA-MB-435 xenografts; type: in vivo, mice; details: 20 mg/kg, IP
MDA-MB-231 = assay: growth inhibition (GI50) of tumor cell lines; type: cell-based; details: MDA-MB-231, FIG. 1
Experimental: as §1

[5] = system: melanoma tumor cell lines; assay: growth inhibition (GI50) of tumor cell lines; type: cell-based; details: FIG. 1
Experimental: as §1

SMILES	inhibition of growth of PC-3 xenografts (PC-3 xenografts)	% Max T/C (PC-3 xenografts)	Log10 Tumor Cell Kill (PC-3 xenografts)	GI50 (concentration that diminishes growth by a factor of two) (SKMEL-2)	GI50 (concentration that diminishes growth by a factor of two) [1]	percentage of cells surviving (survival fraction against concentration) [2]	area under the curve [3]	half-life ([3]; mouse, tumor, read-out: terminal half-life)	Vd ([3]; mouse, tumor, read-out: volume of distribution)	#Tumor Free (day) [4]	% Max T/C [4]	GI50 (concentration that diminishes growth by a factor of two) (MDA-MB-231)	GI50 (concentration that diminishes growth by a factor of two) [5]
CC(=O)O[C@H]1C(=O)[C@@]2(C)[C@H]([C@H](OC(=O)c3ccccc3)[C@]3(O)C[C@H](OC(=O)[C@H](O)[C@@H](NC(=O)c4ccccc4)c4ccccc4)C(C)=C1C3(C)C)[C@]1(OC(C)=O)CO[C@@H]1C[C@@H]2O [paclitaxel, reference compound]	significantly inhibited tumor growth	0%	3.4	significantly less effective than the remaining four drugs	significantly less effective than the remaining four drugs	–	–	–	–	–	–	–	–
CC(C)[C@H](O)C(=O)N[C@H]1Cc2ccc3c(c2)[C@]24C5=C(N=C(O5)[C@H](C(C)C)NC1=O)c1ncc(o1)-c1c[nH]c5cccc(c15)-c1cccc2c1NC4O3 (stereo in doubt) [Compound J]	comparable to paclitaxel; also recorded: significantly inhibited tumor growth	0.3%	3.4	–	–	more effective than paclitaxel	3010224 ng·min/mL	4.96 h	2.9 L/kg	0/6	6.8% and 3.1%	more effective than the remaining drugs	less effective than the remaining drugs

— patent publication US7538129B2, “Diazonamide A analog” (Board of Regents, The University of Texas System, priority 2005, dated 2009)
